Test results taken from ChEMBL document CHEMBL1154952, “N1-Alkyl pyrimidinediones as non-nucleoside inhibitors of HIV-1 reverse transcriptase” (Bioorg Med Chem Lett, 2010).
In brackets after ≈: the same amount, converted by molar mass.

System: not listed separately
Assay: Half life in Beagle dog at 0.5 mg/kg, iv or. 5 mg/kg, po
Assay type: ADME, organism-based, Canis lupus familiaris
Conditions: in vivo

SMILES	half-life
CCc1c(C(=O)c2cc(C)cc(C#N)c2)n(CC)c(=O)[nH]c1=O	1.42 h
Cc1cc(C#N)cc(C(=O)c2[nH]c(=O)[nH]c(=O)c2C(C)C)c1	6.4 h
CCn1c(C(=O)c2cc(C)cc(C#N)c2)c(C(C)C)c(=O)[nH]c1=O	6.5 h
CCCn1c(C(=O)c2cc(C)cc(C#N)c2)c(C(C)C)c(=O)[nH]c1=O	1.67 h
CCCCn1c(C(=O)c2cc(C)cc(C#N)c2)c(C(C)C)c(=O)[nH]c1=O	6.1 h
Cc1cc(C#N)cc(C)c1Oc1nc(Nc2ccc(C#N)cc2)nc(N)c1Br [ETRAVIRINE]	8.87 h

System: not listed separately
Assay: Oral bioavailability in Beagle dog at 0.5 mg/kg
Assay type: ADME, organism-based, Canis lupus familiaris
Conditions: in vivo

SMILES	bioavailability
CCn1c(C(=O)c2cc(C)cc(C#N)c2)c(C(C)C)c(=O)[nH]c1=O	69%

System: Canis familiaris
Assay: Toxicity in Beagle dog assessed as emesis at greater than 5 mg/kg, po dosed as suspension
Assay type: organism-based, Canis lupus familiaris
Parameters: dose 5 mg/kg, route oral
Conditions: in vivo

SMILES	Activity
CCn1c(C(=O)c2cc(C)cc(C#N)c2)c(C(C)C)c(=O)n(COP(=O)(O)O)c1=O	Toxic

System: Human immunodeficiency virus 1
Assay: Antiviral activity against NNRTI-resistant HIV1 harboring reverse transcriptase K103N mutant infected in human MT2 cells
Assay type: functional, organism-based
Conditions: Human immunodeficiency virus 1, MT2

SMILES	EC50
CCn1c(C(F)c2cc(C)cc(C#N)c2)c(C(C)C)c(=O)[nH]c1=O (stereo not drawn)	> 24 nM
CCc1c(C(=O)c2cc(C)cc(C#N)c2)n(CC)c(=O)[nH]c1=O	> 43 nM
CCn1c(Oc2cc(C)cc(C#N)c2)c(C(C)C)c(=O)[nH]c1=O	> 14 nM
Cc1cc(C#N)cc(C(=O)c2[nH]c(=O)[nH]c(=O)c2C(C)C)c1	> 1 nM
Cc1cc(C#N)cc(C(=O)c2c(C(C)C)c(=O)[nH]c(=O)n2C)c1	> 2.7 nM
CCn1c(C(=O)c2cc(C)cc(C#N)c2)c(C(C)C)c(=O)[nH]c1=O	6.4 nM
CCCn1c(C(=O)c2cc(C)cc(C#N)c2)c(C(C)C)c(=O)[nH]c1=O	> 36 nM
CCCCn1c(C(=O)c2cc(C)cc(C#N)c2)c(C(C)C)c(=O)[nH]c1=O	10 nM
CCn1c(C(=O)c2cc(C)cc(C#N)c2)c(C(C)(C)C)c(=O)[nH]c1=O	2.7 nM
CCn1c(C(F)(F)c2cc(C)cc(C#N)c2)c(C(C)C)c(=O)[nH]c1=O	9 nM

System: not listed separately
Assay: AUC ((0 to infinity)) in Beagle dog at 5 mg/kg, po dosed as Tablet formulation
Assay type: ADME, organism-based, Canis lupus familiaris
Parameters: time infinity, dose 5 mg/kg, route oral
Conditions: plasma

SMILES	AUC(0-inf)
CCn1c(C(=O)c2cc(C)cc(C#N)c2)c(C(C)C)c(=O)n(COC(C)=O)c1=O	8.78 µM·h
CCn1c(C(=O)c2cc(C)cc(C#N)c2)c(C(C)C)c(=O)n(COC(=O)OC(C)C)c1=O	4.54 µM·h
CCn1c(C(=O)c2cc(C)cc(C#N)c2)c(C(C)C)c(=O)[nH]c1=O	13.5 µM·h

System: not listed separately
Assay: AUC ((0 to infinity)) in Beagle dog at 5 mg/kg, po dosed as suspension
Assay type: ADME, organism-based, Canis lupus familiaris
Parameters: time infinity, dose 5 mg/kg, route oral
Conditions: plasma

SMILES	AUC(0-inf)
CCn1c(C(=O)c2cc(C)cc(C#N)c2)c(C(C)C)c(=O)n(COC(C)=O)c1=O	14.7 µM·h
CCn1c(C(=O)c2cc(C)cc(C#N)c2)c(C(C)C)c(=O)n(COC(=O)OC(C)C)c1=O	54 µM·h
CCn1c(C(=O)c2cc(C)cc(C#N)c2)c(C(C)C)c(=O)n(COP(=O)(O)O)c1=O	18.8 µM·h
CCn1c(C(=O)c2cc(C)cc(C#N)c2)c(C(C)C)c(=O)[nH]c1=O	13.1 µM·h

System: not listed separately
Assay: Aqueous solubility in 50 mM phosphate buffer
Assay type: physicochemical
Conditions: not given

SMILES	solubility
CCn1c(C(=O)c2cc(C)cc(C#N)c2)c(C(C)C)c(=O)n(COC(C)=O)c1=O	2.2 µg/mL (≈ 5.54 µM)
CCn1c(C(=O)c2cc(C)cc(C#N)c2)c(C(C)C)c(=O)n(COC(=O)OC(C)C)c1=O	< 1 µg/mL
CCn1c(C(=O)c2cc(C)cc(C#N)c2)c(C(C)C)c(=O)n(COP(=O)(O)O)c1=O	12000 µg/mL (≈ 27600 µM)
CCn1c(C(=O)c2cc(C)cc(C#N)c2)c(C(C)C)c(=O)[nH]c1=O	11 µg/mL (≈ 33.8 µM)

Biological target: Albumin (Homo sapiens, UniProt P02768)
Sequence (P02768 whole entry): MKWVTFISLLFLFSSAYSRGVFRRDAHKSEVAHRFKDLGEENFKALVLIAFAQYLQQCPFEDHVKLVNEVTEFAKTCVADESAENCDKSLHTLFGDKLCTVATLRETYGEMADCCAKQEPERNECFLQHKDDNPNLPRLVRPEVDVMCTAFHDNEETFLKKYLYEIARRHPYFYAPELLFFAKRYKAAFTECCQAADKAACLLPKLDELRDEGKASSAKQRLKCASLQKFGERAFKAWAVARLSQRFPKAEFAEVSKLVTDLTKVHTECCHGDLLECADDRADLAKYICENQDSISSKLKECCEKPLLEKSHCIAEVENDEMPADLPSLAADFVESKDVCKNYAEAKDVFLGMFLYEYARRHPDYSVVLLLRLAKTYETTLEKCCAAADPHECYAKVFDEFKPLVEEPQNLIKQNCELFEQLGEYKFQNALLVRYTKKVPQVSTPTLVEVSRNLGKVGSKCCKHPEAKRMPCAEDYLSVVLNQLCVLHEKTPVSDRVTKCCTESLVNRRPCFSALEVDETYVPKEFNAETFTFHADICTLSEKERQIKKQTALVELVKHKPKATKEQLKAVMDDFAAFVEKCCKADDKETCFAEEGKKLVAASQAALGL
Assay: Binding affinity to human serum albumin
Assay type: ADME
Conditions: read-out: PB (converted)

SMILES	fraction unbound
CCn1c(C(F)c2cc(C)cc(C#N)c2)c(C(C)C)c(=O)[nH]c1=O (stereo not drawn)	0.02
CCc1c(C(=O)c2cc(C)cc(C#N)c2)n(CC)c(=O)[nH]c1=O	0.149
CCn1c(Oc2cc(C)cc(C#N)c2)c(C(C)C)c(=O)[nH]c1=O	0.04
Cc1cc(C#N)cc(C(=O)c2c(C(C)C)c(=O)[nH]c(=O)n2C)c1	0.141
CCn1c(C(=O)c2cc(C)cc(C#N)c2)c(C(C)C)c(=O)[nH]c1=O	0.166
CCCn1c(C(=O)c2cc(C)cc(C#N)c2)c(C(C)C)c(=O)[nH]c1=O	0.009
CCCCn1c(C(=O)c2cc(C)cc(C#N)c2)c(C(C)C)c(=O)[nH]c1=O	0.001
CCn1c(C(=O)c2cc(C)cc(C#N)c2)c(C(C)(C)C)c(=O)[nH]c1=O	0.007
CCn1c(C(F)(F)c2cc(C)cc(C#N)c2)c(C(C)C)c(=O)[nH]c1=O	0.013
O=C1Nc2ccc(Cl)cc2[C@@](C#CC2CC2)(C(F)(F)F)O1 [EFAVIRENZ]	0.001
Cc1cc(C#N)cc(C)c1Oc1nc(Nc2ccc(C#N)cc2)nc(N)c1Br [ETRAVIRINE]	0.002

System: Human immunodeficiency virus 1
Assay: Ratio of EC50 for wild type HIV1 in absence of 50% human serum to EC50 for wild type HIV1 in presence of 50% human serum
Assay type: functional
Conditions: not given

SMILES	Ratio EC50
CCn1c(C(=O)c2cc(C)cc(C#N)c2)c(C(C)C)c(=O)[nH]c1=O	2.7

System: Human immunodeficiency virus 1
Assay: Ratio of EC50 for HIV1 harboring reverse transcriptase K103N mutant in absence of 50% human serum to EC50 for HIV1 harboring reverse transcriptase K103N mutant in presence of 50% human serum
Assay type: functional
Conditions: not given

SMILES	Ratio EC50
CCn1c(C(=O)c2cc(C)cc(C#N)c2)c(C(C)C)c(=O)[nH]c1=O	2.7

System: not listed separately
Assay: Oral bioavailability in Beagle dog at 5 mg/kg, po dosed as suspension
Assay type: ADME, organism-based, Canis lupus familiaris
Conditions: in vivo

SMILES	bioavailability
CCn1c(C(=O)c2cc(C)cc(C#N)c2)c(C(C)C)c(=O)n(COC(C)=O)c1=O	48.9%
CCn1c(C(=O)c2cc(C)cc(C#N)c2)c(C(C)C)c(=O)n(COC(=O)OC(C)C)c1=O	108%
CCn1c(C(=O)c2cc(C)cc(C#N)c2)c(C(C)C)c(=O)n(COP(=O)(O)O)c1=O	75.2%
CCn1c(C(=O)c2cc(C)cc(C#N)c2)c(C(C)C)c(=O)[nH]c1=O	35.8%

System: Human immunodeficiency virus 1
Assay: Antiviral activity against wild type HIV1 infected in human MT2 cells
Assay type: functional, organism-based
Conditions: Human immunodeficiency virus 1, MT2

SMILES	EC50
CCn1c(C(F)c2cc(C)cc(C#N)c2)c(C(C)C)c(=O)[nH]c1=O (stereo not drawn)	21 nM
CCc1c(C(=O)c2cc(C)cc(C#N)c2)n(CC)c(=O)[nH]c1=O	11.7 nM
CCn1c(Oc2cc(C)cc(C#N)c2)c(C(C)C)c(=O)[nH]c1=O	35 nM
Cc1cc(C#N)cc(C(=O)c2[nH]c(=O)[nH]c(=O)c2C(C)C)c1	> 500 nM
Cc1cc(C#N)cc(C(=O)c2c(C(C)C)c(=O)[nH]c(=O)n2C)c1	187 nM
CCn1c(C(=O)c2cc(C)cc(C#N)c2)c(C(C)C)c(=O)[nH]c1=O	6.1 nM
CCCn1c(C(=O)c2cc(C)cc(C#N)c2)c(C(C)C)c(=O)[nH]c1=O	3.6 nM
CCCCn1c(C(=O)c2cc(C)cc(C#N)c2)c(C(C)C)c(=O)[nH]c1=O	3 nM
CCn1c(C(=O)c2cc(C)cc(C#N)c2)c(C(C)(C)C)c(=O)[nH]c1=O	10 nM
CCn1c(C(F)(F)c2cc(C)cc(C#N)c2)c(C(C)C)c(=O)[nH]c1=O	4.2 nM

System: Human immunodeficiency virus 1
Assay: Ratio of EC50 for HIV1 harboring reverse transcriptase Y181C mutant in absence of 50% human serum to EC50 for HIV1 harboring reverse transcriptase Y181C mutant in presence of 50% human serum
Assay type: functional
Conditions: not given

SMILES	Ratio EC50
CCn1c(C(=O)c2cc(C)cc(C#N)c2)c(C(C)C)c(=O)[nH]c1=O	2.7

System: not listed separately
Assay: Oral bioavailability in Beagle dog at 5 mg/kg, po dosed as Tablet formulation
Assay type: ADME, organism-based, Canis lupus familiaris
Conditions: in vivo

SMILES	bioavailability
CCn1c(C(=O)c2cc(C)cc(C#N)c2)c(C(C)C)c(=O)n(COC(C)=O)c1=O	35.3%
CCn1c(C(=O)c2cc(C)cc(C#N)c2)c(C(C)C)c(=O)n(COC(=O)OC(C)C)c1=O	24%
CCn1c(C(=O)c2cc(C)cc(C#N)c2)c(C(C)C)c(=O)[nH]c1=O	45.1%

System: not listed separately
Assay: Volume of distribution at steady state in Beagle dog at 0.5 mg/kg, iv or. 5 mg/kg, po
Assay type: ADME, organism-based, Canis lupus familiaris
Conditions: in vivo, read-out: Vdss

SMILES	Vd
CCc1c(C(=O)c2cc(C)cc(C#N)c2)n(CC)c(=O)[nH]c1=O	1.53 L/kg
Cc1cc(C#N)cc(C(=O)c2[nH]c(=O)[nH]c(=O)c2C(C)C)c1	0.45 L/kg
CCn1c(C(=O)c2cc(C)cc(C#N)c2)c(C(C)C)c(=O)[nH]c1=O	2.25 L/kg
CCCn1c(C(=O)c2cc(C)cc(C#N)c2)c(C(C)C)c(=O)[nH]c1=O	1.4 L/kg
CCCCn1c(C(=O)c2cc(C)cc(C#N)c2)c(C(C)C)c(=O)[nH]c1=O	2.23 L/kg
Cc1cc(C#N)cc(C)c1Oc1nc(Nc2ccc(C#N)cc2)nc(N)c1Br [ETRAVIRINE]	1.6 L/kg

System: not listed separately
Assay: Oral bioavailability in Beagle dog at 2 mg/kg
Assay type: ADME, organism-based, Canis lupus familiaris
Conditions: in vivo

SMILES	bioavailability
CCCCn1c(C(=O)c2cc(C)cc(C#N)c2)c(C(C)C)c(=O)[nH]c1=O	28%

System: Human immunodeficiency virus 1
Assay: Antiviral activity against HIV1 harboring reverse transcriptase Y181C mutant infected in human MT2 cells
Assay type: functional, organism-based
Conditions: Human immunodeficiency virus 1, MT2

SMILES	EC50
CCn1c(C(F)c2cc(C)cc(C#N)c2)c(C(C)C)c(=O)[nH]c1=O (stereo not drawn)	8.1 nM
CCc1c(C(=O)c2cc(C)cc(C#N)c2)n(CC)c(=O)[nH]c1=O	> 43 nM
CCn1c(Oc2cc(C)cc(C#N)c2)c(C(C)C)c(=O)[nH]c1=O	2.6 nM
Cc1cc(C#N)cc(C(=O)c2[nH]c(=O)[nH]c(=O)c2C(C)C)c1	> 1 nM
Cc1cc(C#N)cc(C(=O)c2c(C(C)C)c(=O)[nH]c(=O)n2C)c1	> 2.7 nM
CCn1c(C(=O)c2cc(C)cc(C#N)c2)c(C(C)C)c(=O)[nH]c1=O	9.6 nM
CCCn1c(C(=O)c2cc(C)cc(C#N)c2)c(C(C)C)c(=O)[nH]c1=O	> 58 nM
CCCCn1c(C(=O)c2cc(C)cc(C#N)c2)c(C(C)C)c(=O)[nH]c1=O	12 nM
CCn1c(C(=O)c2cc(C)cc(C#N)c2)c(C(C)(C)C)c(=O)[nH]c1=O	> 50 nM
CCn1c(C(F)(F)c2cc(C)cc(C#N)c2)c(C(C)C)c(=O)[nH]c1=O	4.3 nM

System: not listed separately
Assay: Oral bioavailability in Beagle dog at 4 mg/kg
Assay type: ADME, organism-based, Canis lupus familiaris
Conditions: in vivo

SMILES	bioavailability
Cc1cc(C#N)cc(C)c1Oc1nc(Nc2ccc(C#N)cc2)nc(N)c1Br [ETRAVIRINE]	13%
